# Test results taken from patent US20110294766A1, “16 Alpha, 17 Alpha-Acetal Glucocorticosteroidal Derivatives and their Use” (AstraZeneca AB, priority 2008, published 2011).
# Biological target: T1, recombinant human GR (Homo sapiens, UniProt P04150)
# T1 construct: purchased Panvera/Invitrogen P2812 (kit P2893)
# T1 sequence (P04150 1-777): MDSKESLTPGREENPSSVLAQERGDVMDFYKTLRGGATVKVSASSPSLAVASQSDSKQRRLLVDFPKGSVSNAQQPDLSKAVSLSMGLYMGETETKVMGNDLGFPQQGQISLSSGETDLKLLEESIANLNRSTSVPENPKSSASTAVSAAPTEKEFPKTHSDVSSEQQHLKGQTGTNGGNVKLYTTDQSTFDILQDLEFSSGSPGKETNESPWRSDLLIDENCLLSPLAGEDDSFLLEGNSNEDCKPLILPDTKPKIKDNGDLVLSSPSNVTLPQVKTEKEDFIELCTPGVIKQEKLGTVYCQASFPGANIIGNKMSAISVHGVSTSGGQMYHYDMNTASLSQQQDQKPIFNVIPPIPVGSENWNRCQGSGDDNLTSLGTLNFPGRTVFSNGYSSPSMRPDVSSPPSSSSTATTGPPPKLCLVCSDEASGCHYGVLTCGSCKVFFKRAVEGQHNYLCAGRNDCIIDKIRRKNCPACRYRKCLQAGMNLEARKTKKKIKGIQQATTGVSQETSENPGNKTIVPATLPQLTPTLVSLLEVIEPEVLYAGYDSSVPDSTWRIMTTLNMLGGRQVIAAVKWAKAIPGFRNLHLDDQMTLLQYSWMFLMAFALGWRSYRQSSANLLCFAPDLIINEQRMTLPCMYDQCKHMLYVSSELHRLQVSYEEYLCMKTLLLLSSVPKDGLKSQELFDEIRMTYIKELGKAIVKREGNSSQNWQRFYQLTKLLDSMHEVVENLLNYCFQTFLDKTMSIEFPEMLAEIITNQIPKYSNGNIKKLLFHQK
# Assay: Human Glucocorticoid Receptor (GR) Assay (fluorescence polarization, Panvera/Invitrogen kit)
# Details: GS Red tracer, 2 hours at room temperature, 100% control 10 μM Dexamethasone, read-out: Inhibition of GR binding, IC50
# Description: Human Glucocorticoid Receptor (GR) Assay The assay is based on a commercial kit from Panvera/Invitrogen (Part number P2893). The assay technology is fluorescence polarization. The kit utilises recombinant human GR (Panvera, Part number P2812), a Fluoromone™ labelled tracer (GS Red, Panvera, Part number P2894) and a Stabilizing Peptide 10× (Panvera, Part number P2815). The GR and Stabilizing Peptide reagents are stored at −70° C. while the GS Red is stored at −20° C. Also included in the kit are 1M DTT (Panvera, Part number P2325, stored at −20° C.) and GR Screening buffer 10× (Panvera, Part number P2814, stored at −70° C. initially but once thawed stored at room temperature). Avoid repeated freeze/thaws for all reagents. The GR Screening buffer 10× comprises 100 mM potassium phosphate, 200 mM sodium molybdate, 1 mM EDTA and 20% DMSO. Test compounds (1 μL) and controls (1 μL) in 100% DMSO were added to black polystyrene 384-well plates (Greiner low volume black flat-bottom, part number 784076). 0% control was 100% DMSO and 100% control was 10 μM Dexamethasone. Background solution (8 μL; assay buffer 10×, Stabilizing Peptide, DTT and ice cold MQ water) was added to the background wells. GS Red solution (7 μL; assay buffer 10×, Stabilizing Peptide, DTT, GS Red and ice cold water) was added to all wells except background wells. GR solution (7 μL; assay buffer 10×, Stabilizing Peptide, DTT, GR and ice cold water) was added to all wells. The plate was sealed and incubated in a dark at room temperature for 2 hours. The plate was read in an Analyst plate reader (LJL Biosystems/Molecular Devices Corporation) or other similar plate reader capable of recording fluorescence polarization (excitation wavelength 530 nm, emission wavelength 590 nm and a dichroic mirror at 561 nm).
row,SMILES,IC50 [nM]
1,"C[C@]12C=CC(=O)C=C1[C@@H](F)C[C@H]1[C@@H]3C[C@H]4OC(c5ccc(OC(F)(F)F)cc5)O[C@@]4(C(=O)SCC#N)[C@@]3(C)C[C@H](O)[C@@]12F (stereo partly drawn) [Example 19, S-(Cyanomethyl)(4aS,4bR,5S,6aS,6bS,9aR,10aS,10bS,12S)-4b,12-difluoro-5-hydroxy-4a,6a-dimethyl-2-oxo-8-[4-(trifluoromethoxy)phenyl]-2,4a,4b,5,6,6a,9a,10,10a,10b,11,12-dodecahydro-6bH-naphtho[2′,1′:4,5]indeno[1,2-d][1,3]dioxole-6b-carbothioate]",4.8
2,"C[C@]12C=CC(=O)C=C1[C@@H](F)C[C@H]1[C@@H]3C[C@H]4OC(c5ccc(C(F)(F)F)cc5)O[C@@]4(C(=O)SCF)[C@@]3(C)C[C@H](O)[C@@]12F (stereo partly drawn) [Example 18, S-(Fluoromethyl)(4aS,4bR,5S,6aS,6bS,9aR,10aS,10bS,12S)-4b,12-difluoro-5-hydroxy-4a,6a-dimethyl-2-oxo-8-[4-(trifluoromethyl)phenyl]-2,4a,4b,5,6,6a,9a,10,10a,10b,11,12-dodecahydro-6bH-naphtho[2′,1′:4,5]indeno[1,2-d][1,3]dioxole-6b-carbothioate]",3.7
3,"COc1ccc(C2O[C@@H]3C[C@H]4[C@@H]5CCC6=CC(=O)C=C[C@]6(C)[C@H]5[C@@H](O)C[C@]4(C)[C@]3(C(=O)SCC#N)O2)c(F)c1 (stereo partly drawn) [Example 37, S-(Cyanomethyl)(4aR,4bS,5S,6aS,6bS,9aR,10aS,10bS)-8-(2-fluoro-4-methoxyphenyl)-5-hydroxy-4a,6a-dimethyl-2-oxo-2,4a,4b,5,6,6a,9a,10,10a,10b,11,12-dodecahydro-6bH-naphtho[2′,1′:4,5]indeno[1,2-d][1,3]dioxole-6b-carbothioate]",1.4
4,"C[C@]12C=CC(=O)C=C1[C@@H](F)C[C@H]1[C@@H]3C[C@H]4OC(c5ccc(C(F)(F)F)o5)O[C@@]4(C(=O)SCF)[C@@]3(C)C[C@H](O)[C@@]12F (stereo partly drawn) [Example 14, S-(Fluoromethyl)(4aS,4bR,5S,6aS,6bS,9aR,10aS,10bS,12S)-4b,12-difluoro-5-hydroxy-4a,6a-dimethyl-2-oxo-8-[5-(trifluoromethyl)-2-furyl]-2,4a,4b,5,6,6a,9a,10,10a,10b,11,12-dodecahydro-6bH-naphtho[2′,1′:4,5]indeno[1,2-d][1,3]dioxole-6b-carbothioate]",1.2
5,"C[C@]12C=CC(=O)C=C1[C@@H](F)C[C@H]1[C@@H]3C[C@H]4OC(c5ccccc5F)O[C@@]4(C(=O)SCF)[C@@]3(C)C[C@H](O)[C@@]12F (stereo partly drawn) [Example 21, S-(Fluoromethyl)(4aS,4bR,5S,6aS,6bS,9aR,10aS,10bS,12S)-4b,12-difluoro-8-(2-fluorophenyl)-5-hydroxy-4a,6a-dimethyl-2-oxo-2,4a,4b,5,6,6a,9a,10,10a,10b,11,12-dodecahydro-6bH-naphtho[2′,1′:4,5]indeno[1,2-d][1,3]dioxole-6b-carbothioate]",0.57
6,C[C@]12C=CC(=O)C=C1[C@@H](F)C[C@H]1[C@@H]3C[C@H]4OC(c5ccco5)O[C@@]4(C(=O)SCF)[C@@]3(C)C[C@H](O)[C@@]12F (stereo partly drawn) [Example 3],0.92
7,"CSC(=O)[C@@]12OC(c3ccc(C)o3)O[C@@H]1C[C@H]1[C@@H]3C[C@H](F)C4=CC(=O)C=C[C@]4(C)[C@@]3(F)[C@@H](O)C[C@@]12C (stereo partly drawn) [Example 8, S-Methyl (4aS,4bR,5S,6aS,6bS,9aR,10aS,10bS,12S)-4b,12-difluoro-5-hydroxy-4a,6a-dimethyl-8-(5-methyl-2-furyl)-2-oxo-2,4a,4b,5,6,6a,9a,10,10a,10b,11,12-dodecahydro-6bH-naphtho[2′,1′:4,5]indeno[1,2-d][1,3]dioxole-6b-carbothioate]",1.9
8,"C[C@]12C=CC(=O)C=C1[C@@H](F)C[C@H]1[C@@H]3C[C@H]4OC(c5ccc(F)cc5F)O[C@@]4(C(=O)SCF)[C@@]3(C)C[C@H](O)[C@@]12F (stereo partly drawn) [Example 6, S-(Fluoromethyl)(4aS,4bR,5S,6aS,6bS,9aR,10aS,10bS,12S)-8-(2,4-difluorophenyl)-4b,12-difluoro-5-hydroxy-4a,6a-dimethyl-2-oxo-2,4a,4b,5,6,6a,9a,10,10a,10b,11,12-dodecahydro-6bH-naphtho[2′,1′:4,5]indeno[1,2-d][1,3]dioxole-6b-carbothioate]",1.2
9,"CSC(=O)[C@@]12OC(c3ccccc3F)O[C@@H]1C[C@H]1[C@@H]3CCC4=CC(=O)C=C[C@]4(C)[C@H]3[C@@H](O)C[C@@]12C (stereo partly drawn) [Example 44, S-Methyl (4aR,4bS,5S,6aS,6bS,9aR,10aS,10bS)-8-(2-fluorophenyl)-5-hydroxy-4a,6a-dimethyl-2-oxo-2,4a,4b,5,6,6a,9a,10,10a,10b,11,12-dodecahydro-6bH-naphtho[2′,1′:4,5]indeno[1,2-d][1,3]dioxole-6b-carbothioate]",0.62
10,"C[C@]12C=CC(=O)C=C1[C@@H](F)C[C@H]1[C@@H]3C[C@H]4OC(c5cccs5)O[C@@]4(C(=O)SCC#N)[C@@]3(C)C[C@H](O)[C@@]12F (stereo partly drawn) [Example 9, S-(Cyanomethyl)(4aS,4bR,5S,6aS,6bS,9aR,10aS,10bS,12S)-4b,12-difluoro-5-hydroxy-4a,6a-dimethyl-2-oxo-8-(2-thienyl)-2,4a,4b,5,6,6a,9a,10,10a,10b,11,12-dodecahydro-6bH-naphtho[2′,1′:4,5]indeno[1,2-d][1,3]dioxole-6b-carbothioate]",0.57
11,"C[C@]12C=CC(=O)C=C1CC[C@@H]1[C@@H]2[C@@H](O)C[C@@]2(C)[C@H]1C[C@H]1O[C@@H](c3cccs3)O[C@]12C(=O)SCF [Example 35, S-(Fluoromethyl)(4aR,4bS,5S,6aS,6bS,8R,9aR,10aS,10bS)-5-hydroxy-4a,6a-dimethyl-2-oxo-8-thiophen-2-yl-2,4a,4b,5,6,6a,9a,10,10a,10,11,12-dodecahydro-6bH-naphtho[2′,1′:4,5]indeno[1,2-d][1,3]dioxole-6b-carbothioate]",1.1
12,C[C@]12C=CC(=O)C=C1[C@@H](F)C[C@H]1[C@@H]3C[C@H]4OC(c5ccco5)O[C@@]4(C(=O)SCC#CCO)[C@@]3(C)C[C@H](O)[C@@]12F (stereo partly drawn) [Example 2],1.2
13,"C[C@]12C=CC(=O)C=C1[C@@H](F)C[C@H]1[C@@H]3C[C@H]4OC(c5ccccc5F)O[C@@]4(C(=O)SCC#N)[C@@]3(C)C[C@H](O)[C@@]12F (stereo partly drawn) [Example 27, S-(Cyanomethyl)(4aS,4bR,5S,6aS,6bS,9aR,10aS,10bS,12S)-4b,12-difluoro-8-(2-fluorophenyl)-5-hydroxy-4a,6a-dimethyl-2-oxo-2,4a,4b,5,6,6a,9a,10,10a,10b,11,12-dodecahydro-6bH-naphtho[2′,1′:4,5]indeno[1,2-d][1,3]dioxole-6b-carbothioate]",1.1
14,"COc1ccc([C@H]2O[C@@H]3C[C@H]4[C@@H]5CCC6=CC(=O)C=C[C@]6(C)[C@H]5[C@@H](O)C[C@]4(C)[C@]3(C(=O)SC)O2)c(F)c1 (single isomer, unassigned) [Example 38 (8S)]",0.88
15,"Cc1ccc([C@H]2O[C@@H]3C[C@H]4[C@@H]5C[C@H](F)C6=CC(=O)C=C[C@]6(C)[C@@]5(F)[C@@H](O)C[C@]4(C)[C@]3(C(=O)SCF)O2)o1 [Example 7, S-(Fluoromethyl)(4aS,4bR,5S,6aS,6bS,8S,9aR,10aS,10bS,12S)-4b,12-difluoro-5-hydroxy-4a,6a-dimethyl-8-(5-methyl-2-furyl)-2-oxo-2,4a,4b,5,6,6a,9a,10,10a,10b,11,12-dodecahydro-6bH-naphtho[2′,1′:4,5]indeno[1,2-d][1,3]dioxole-6b-carbothioate]",1
